Experiments:
[1] = target: T1, GST-GR LBD (F602S) 521–777 (Homo sapiens, UniProt P04150, F602S); test: Surface plasmon resonance (Biacore) binding of GST-GR LBD to immobilized TIF2 LXXLL peptide
T1 construct: GR-LBD(521–777) F602S; made in house; host or cells: E. coli BL21(DE3); TIF2 peptide made by chemical synthesis
T1 sequence (P04150 521-777 F602S): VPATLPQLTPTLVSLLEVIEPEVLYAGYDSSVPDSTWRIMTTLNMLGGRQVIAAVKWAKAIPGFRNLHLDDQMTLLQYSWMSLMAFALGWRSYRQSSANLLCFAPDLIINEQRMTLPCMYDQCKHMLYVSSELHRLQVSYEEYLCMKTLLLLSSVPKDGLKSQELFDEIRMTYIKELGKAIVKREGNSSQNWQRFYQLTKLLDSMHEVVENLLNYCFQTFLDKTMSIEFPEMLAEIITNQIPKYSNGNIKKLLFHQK
Experimental: Each point is the average of two determinations.
FIG. 2B was generated using Biacore techniques. Biacore relies on changes in the refractive index at the surface layer upon binding of a ligand to a protein immobilized on the layer. In this system, a collection of small ligands is injected sequentially in a 2–5 microliter cell, wherein the protein is immobilized within the cell. Binding is detected by surface plasmon resonance (SPR) by recording laser light refracting from the surface. […] The purified protein is then used in the assay without further preparation. A synthetic peptide with an amino-terminal biotin is coupled to a sensor chip immobilized with streptavidin. The chip thus prepared is then exposed to the potential ligand via the delivery system incorporated in the instruments sold by Biacore (Uppsala, Sweden) to pipet the ligands in a sequential manner (autosampler). The SPR signal on the chip is recorded and changes in the refractive index indicate an interaction between the immobilized target and the ligand. Analysis of the signal kinetics of on rate and off rate allows the discrimination between non-specific and specific interaction.

[2] = target: GR LBD (F602S) 521–777 (Homo sapiens, UniProt P04150, F602S); settings: GST-GR fusion protein and cleaved GR LBD alone; 10 nM fluorescein dexamethasone, competed with 100 uM unlabeled dexamethasone (FIG. 2A)
Experimental: FIG. 2A is a graph depicting the binding of 10 nM fluorescein dexamethasone to varied concentrations of GST-GR LBD (F602S) 521–777 (circles), GR LBD (F602S) 521–777 (triangles) and GR LBD (F602S) 521–777 in the presence of 100 uM unlabeled dexamethasone (squares) as measured by fluorescence polarization.
All experiments were conducted with buffer containing 10 mM HEPES pH 7.4, 0.15 M NaCl, 3 mM EDTA, 0.005% polysorbate-20 and 5 mM DTT. For activity determinations, 10 nM of fluorescein dexamethasone (Molecular Probes, Eugene, Ore.) was titrated with increasing concentrations of the glucocorticoid receptor in black 96-well plates (CoStar, Cambridge, Mass.). The fluorescence polarization values for each concentration of receptor were determined using a BMG PolarStar Galaxy fluorescence plate reader (BMG Labtechnologies GmbH, Offenburg, Germany) with 485 nm excitation and 520 nm emission filters. Binding isotherms were constructed and apparent EC50 values were determined by non-linear least squares fit of the data to an equation for a simple 1:1 interaction. […] For stability studies, the fluorescent polarization of 10 nM fluorescein dexamethasone with 1 μM GST-GR LBD 521–777 (F602S) is read at specific time intervals in the presence or absence of 25 uM of a peptide derived from the coactivator TIF2.

[3] = target: T2, GST-GR LBD 521–777 (F602S) (Homo sapiens, UniProt P04150, F602S); test: Stability of GR dexamethasone binding activity over time by fluorescence polarization; settings: 25 uM peptide, 1 μM GST-GR LBD, 10 nM fluorescein dexamethasone (FIG. 2C)
T2 construct: GR-LBD(521–777) F602S; made in house; host or cells: E. coli BL21(DE3)
T2 sequence (P04150 521-777 F602S): T1 sequence (P04150 521-777 F602S)
Experimental: FIG. 2C is a graph depicting that TIF2 coactivator peptide enhances stability of GR dexamethasone binding activity. The effect of 25 uM coactivator peptide TIF2 732–756 (diamonds) or no peptide (squares) on the binding of GST-GR LBD (F602S) 521–777 to 10 nM fluorescein dexamethasone with time is determined by fluorescence polarization.

GR LBD (F602S) 521–777, sequence (P04150 with tags, fused parts or gaps F602S): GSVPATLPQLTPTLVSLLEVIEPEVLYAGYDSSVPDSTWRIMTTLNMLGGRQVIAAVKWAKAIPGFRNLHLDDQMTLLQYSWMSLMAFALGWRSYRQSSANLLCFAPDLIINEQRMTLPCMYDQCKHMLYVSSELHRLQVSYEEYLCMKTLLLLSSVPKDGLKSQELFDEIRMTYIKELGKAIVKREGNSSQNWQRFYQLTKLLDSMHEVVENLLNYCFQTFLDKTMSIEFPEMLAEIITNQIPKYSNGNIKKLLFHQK

Substance	effect of ligand on binding of the GST-GR fusion protein to the TIF2 peptide ([1]; five-fold excess of compound over GST-GR LBD (F602S) (FIG. 2B))	binding of dexamethasone to GR [2]	affinity of the TIF2 coactivator peptide for the GST-GR fusion protein ([1]; immobilized TIF2 732–756 peptide (FIG. 2B))	effect on the dexamethasone binding activity of the GST-GR fusion protein with time [3]
(11β, 16α)-9-fluoro-11β,17,21-trihydroxy-16α-methylpregna-1-4-diene-3,20-dione [dexamethasone]	enhanced	saturable and competable		
QEPVSPKKKENALLRYLLDKDDTKD [TIF2 peptide]			submicromolar	stabilizes

Reference: patent US7238778B2, “Crystallized glucocorticoid receptor ligand binding domain polypeptide and screening methods employing same” (SmithKline Beecham Corporation, priority 2001, dated 2007)
